# Marks after values point to notes of the source that are not given here.
# B1: sDl1: soluble non-transmembrane form of the Notch ligand Delta1 (protein)
# chain: QVWSSGVFELKLQEFVNKKGLLGNRNCCRGGAGPPPCACRTFFRVCLKHYQASVSPEPPCTYGSAVTPVLGVDSFSLPDGGGADSAFSNPIRFPFGFTWPGTFSLIIEALHTDSPDDLATENPERLISRLATQRHLTVGEEWSQDLHSSGRTDLKYSYRFVCDEHYYGEGCSVFCRPRDDAFGHFTCGERGEKVCNPGWKGPYCTEPICLPGCDEQHGFCDKPGECKCRVGWQGRYCDECIRYPGCLHGTCQQPWQCNCQEGWGGLFCNQDLNYCTHHKPCKNGATCTNTGQGSYTCSCRPGYTGATCELGIDECDPSPCKNGGSCTDLENSYSCTCPPGFYGKICELSAMTCADGPCFNGGRCSDSPDGGYSCRCPVGYSGFNCEKKIDYCSSSPCSNGAKCVDLGDAYLCRCQAGFSGRHCDDNVDDCASSPCANGGTCRDGVNDFSCTCPPGYTGRNCSAPVSRCEHAPCHNGATCHERGHRYVCECARGYGGPNCQFLLPELPPGPAVVDLTEKLEGQGGPFPW
# modifications: left off: small tags and cut ends
# notes: soluble non-transmembrane form of the Notch ligand Delta1
# Experiments:
# [1] = system: clonal cortical neurospheres; assay: Cortical neurosphere model, secondary sphere formation; assay type: cell-based, murine; conditions: for F/SP × 10^2 / Cells/Founder (F) / Secondary Spheres (SP): day 10; for Cells/Founder (F): mean±SD; for Secondary Spheres (SP): from dissociation of founder spheres, mean±SD of three experiments; for secondary spheres per primary sphere: primary spheres grown 2 weeks with the factor, secondary spheres in standard media
# Text: The E14 prefrontal ventricular zone was dissected and plated at a clonal neurosphere-forming density in the presence of either sJ1, sDl1, thrombin, TRAP or no supplementation. After 2 weeks, the clones were dissociated to single cells and secondary spheres were generated using standard media with no supplementation (Reynolds et al., 1992, J. Neurosci. 12:4565-4574).
# Secondary spheres (SP) are formed from the dissociation of founder (F) spheres. The data presented are the number of colonies (mean±SD of three experiments). (*=p≦0.05).
# [2] = system: neurosphere cultures and p75+/P0- neural crest stem cells; assay: RT-PCR of self-renewal transcripts Nestin, Nucleostemin and Bmi1; assay type: cell-based, murine; conditions: for relative expression of Nestin, Nucleostemin and Bmi1 transcripts: primary and secondary neurosphere cultures
# Description: Clonal NCSC neurospheres were generated and allowed to expand for 10 days in either 7.5 nM sJ1, 5 nM sD1, 5 μg/ml α-thrombin, and no additive (control) (FIG. 13A) as described elsewhere herein. Clonal NCSC neurospheres were generated in a feeder-layer coculture system using a monolayer of stable full-length (FL) Jagged1 NIH 3T3 cell transfectants or insert-less NIH 3T3 cell transfectants and treated with either 5 μg/ml thrombin or without further supplementation (control) (FIG. 13B). The results are presented as representative photomicrographs of the spheres obtained under each condition after 14 days of treatment. […] Clonal neurospheres were generated in the presence of either 5 μg/ml α-thrombin, 7.5 nM sJ1, 5 nM sDl1 or no supplement (control) and expanded for 14 days. RT-PCR was used to determine the steady-state mRNA level for three markers of neural stem cells (Nestin, Nucleostemin and Bmi1). An increase in the expression of all three transcripts compared to control was observed. […] Approximately 5×10^2 NCSC were plated in Morrison media supplemented with either 7.5 nM sJ1, 5 μg/ml α-thrombin, 5 nM sD1, 2 ng/ml BMP2 or no additive (control) for 48 hours. The results are presented as the percent of control (mean±standard deviation of three RT-PCR experiments) performed in triplicate. No change in the steady-state level mRNA levels of the three markers relative to actin was observed.
# RT-PCR was performed with 1 μg RNA using the Platinum Taq One Step RT-PCR kit (Invitrogen) as follows: RT (30 minutes at 50° C.), PCR (40 cycles at 94° C. for 15 seconds, at 58° C. for 30 seconds and 72° C. for 1 minute). All amplified cDNA was visualized with ethidium bromide followed by 1.5% agarose gel electrophoresis. RT-PCR analysis of fgf and gapdh was performed as previously described elsewhere herein. […] Each reaction product was measured as a ratio relative to the amplification product of actin and samples were run in triplicate. […]
# [3] = system: FGF1.A transcript in murine NCSC; assay: RT-PCR analysis of FGF1.A mRNA expression in NCSC; assay type: cell-based; conditions: 48 hours; 7.5 nM sJ1, 5.0 nM sDl1, 10 μg/ml α-thrombin or 5 μg/ml TRAP
# NCSC populations = assay: Clonogenic differentiation and serial subcloning assays of NCSC clones (secondary NCSC); assay type: cell-based, murine; parameters: G / Sm / G + Sm: unit not given here; conditions: for NCSC clones that did not express either gliogenic or neurogenic differentiation markers: after 7 days of expansion; for clones that were trifatent (neurons, glial, and smooth muscle progeny): secondary clones established from treated founder clones
# Description: Clonogenic assays were performed as described (Stemple et al., 1992, Cell 71:973-985). Briefly, populations of murine NCSC were plated at a clonal density and maintained for a maximum of 14 days in Morrison media supplemented with 15% chick embryo extract (Morrison et al., 1999, Cell 96:737-749). The resulting clones were fixed in an acetic acid:ethanol solution (2:1) and stained with antibodies against peripherin (Chemicon) to detect neurons, smooth muscle actin (Sigma) to detect myofibroblasts, and GFAP (Chemicon) to detect Schwann cells. Clones were scored based on the appearance of just one phenotypic representative. The number and percentage of clones containing neurons only (N), Schwann cells only (S), myofibroblasts only (M), N+S, N+M, N+S+M, and S+M were scored at day 14 unless otherwise stated. The production of each representative phenotype in each individual clone was also scored to complement the clonal population assay.
# In order to generate secondary NCSC populations, founder clones originating from differentiating E10 clones at distinct time points during NCSC differentiation (days 2 through 18) were treated with trypsin and replated at a cell clonal density using methods previously described (Kubu et al., 2000, Genomics 70:150-152). The resulting cells were subjected to immunofluorescence microscopy using both p75^+ and P0^− antibodies (Kubu et al., 2000, Genomics 70:150-152) and the p75^+/P0^− cells identified as putative stem cells. All non-p75^+/P0^− cells were removed from the dish with a tungsten needle. The cultures of secondary NCSC clones were subjected to the clonogenic assay as described above.
# Specifically, clonogenic differentiation and serial subcloning assays were performed using NCSC clones incubated with either thrombin, sDl1, sJ1 or TRAP.
# Briefly, presented are the number of colonies with the resulting differentiation profiles (mean±SD of three experiments resulting from individual NCSC isolations).
# A genetic approach was used to determine whether thrombin, TRAP, or sJ1 were able to promote cell cycle progression in the NCSC population. Thus, a dnFGFR1 construct was expressed in the NSC cells and the clonogenic differentiation assay conducted in the presence of either sJ1, thrombin or no additional supplement.
# [4] = colonies from secondary NCSC, mean±SD
# [5] = dnFGFR1-transduced NCSC, trifatent
# [6] = glial-only colonies from secondary NCSC, mean±SD
# [7] = secondary stem cells from NCSC founders after ten days of expansion, mean±SD
# [8] = smooth muscle-only colonies from secondary NCSC, mean±SD
# [9] = trifatent colonies from secondary NCSC, mean±SD
Molecule,F/SP × 10^2 [1],Cells/Founder (F) [1],Secondary Spheres (SP) [1],secondary spheres per primary sphere [1],"relative expression of Nestin, Nucleostemin and Bmi1 transcripts [2]",expression of the FGF1.A transcript [3],NCSC clones that did not express either gliogenic or neurogenic differentiation markers (NCSC populations) [%],G + Sm (NCSC populations; [4]),N + G (NCSC populations; [4]),N + Sm (NCSC populations; [4]),G (NCSC populations; dnFGFR1-transduced NCSC),G + Sm (NCSC populations; dnFGFR1-transduced NCSC),N + G (NCSC populations; dnFGFR1-transduced NCSC),N + Sm (NCSC populations; dnFGFR1-transduced NCSC),Secondary NSSC/Founder (NCSC populations; dnFGFR1-transduced NCSC),G (NCSC populations; [6]),"clones that were trifatent (neurons, glial, and smooth muscle progeny) (NCSC populations) [%]",Secondary NSSC/Founder (NCSC populations; [7]),Sm (NCSC populations; [8]),N + G + Sm (NCSC populations; [9]),other results
"sJ1: Soluble Jagged1, amino acid residues from about 1 to 1067 (SEQ ID NO:3) of full-length Jagged1",10%*,527 ± 170*,55 ± 14,64±11,elevated,induced,84±7,3.4 ± 2.8,7.0 ± 5.6,1.5 ± 1.7,9.3 ± 2.7,10.3 ± 6.3,7.2 ± 4.5,6.2 ± 7.0,13.5 ± 4.7,7.8 ± 1.4,74.1±9,26.2 ± 6,6.2 ± 1.0,74.1 ± 9.1,Sm (NCSC populations; dnFGFR1-transduced NCSC): 16.4 ± 8.5; N + G + Sm (NCSC populations; [5]): 48.0 ± 11.8
Thrombin,13%*,488 ± 166*,64 ± 11,55±14,elevated,induced,75±11,2.0 ± 2.1,3.93 ± 3.8,4.5 ± 2.1,1.7 ± 3.1,6.9 ± 8.3,9.8 ± 3.2,5.5 ± 1.5,13.5 ± 2.9,0 ± 0,86.8±2.1,36.8 ± 6.3,2.6 ± 1.01,86.8 ± 2.1,N (NCSC populations; dnFGFR1-transduced NCSC): 5.9 ± 1.7; Sm (NCSC populations; dnFGFR1-transduced NCSC): 24.13 ± 1.4; N + G + Sm (NCSC populations; [5]): 46.0 ± 13.6
B1,2.0%,150 ± 69*,3 ± 3,3±3,,did not influence,0±0,3.4 ± 2.8,0,0,,,,,,72 ± 6.4,0.5,0.6 ± 1.0,20.5 ± 6.5,0.5 ± 0.7,"levels of Nestin, Nucleostemin and Bmi1 transcripts ([2]; p75+/P0- neural crest stem cells, 24 and 48 hours): sharply decreased"
